This is an account of results in patent US8722712B2, “Substituted aryl 1 ,2,4-oxadiazoles derivatives as sphingosine-1 phosphate receptors modulators” (Allergan, Inc., priority 2012, dated 2014).

For the assay, the target named is T1, human S1P1 receptor (Homo sapiens, UniProt P21453).
T1 construct: expressed in transfected cells; membranes used
T1 sequence (P21453 whole entry): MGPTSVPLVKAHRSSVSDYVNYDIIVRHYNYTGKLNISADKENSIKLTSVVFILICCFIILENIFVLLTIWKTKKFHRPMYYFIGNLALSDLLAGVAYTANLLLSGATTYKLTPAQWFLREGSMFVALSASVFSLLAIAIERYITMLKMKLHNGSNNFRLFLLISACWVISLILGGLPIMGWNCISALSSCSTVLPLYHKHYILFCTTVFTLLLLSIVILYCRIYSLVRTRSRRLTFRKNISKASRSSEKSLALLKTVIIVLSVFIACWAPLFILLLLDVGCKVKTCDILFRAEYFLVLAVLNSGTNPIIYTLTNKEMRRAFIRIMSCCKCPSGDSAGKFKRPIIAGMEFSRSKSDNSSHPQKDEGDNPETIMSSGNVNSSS
The assay is described as follows: GTP γ35S binding assay for S1P1 activity. To be noted: membranes of cells stably expressing the S1P1 receptor, test compounds 0.08 to 5,000 nM. In kind it is biochemical. On the procedure:
Compounds were synthesized and tested for S1P1 activity using the GTP γ^355 binding assay. These compounds may be assessed for their ability to activate or block activation of the human S1P1 receptor in cells stably expressing the S1P1 receptor.
[…] binding was measured in the medium containing (mM) HEPES 25, pH 7.4, MgCl2 10, NaCl 100, dithitothreitol 0.5, digitonin 0.003%, 0.2 nM GTP γ^35S, and 5 μg membrane protein in a volume of 150 μl. Test compounds were included in the concentration range from 0.08 to 5,000 nM unless indicated otherwise. Membranes were incubated with 100 μM 5′-adenylylimmidodiphosphate for 30 min, and subsequently with 10 μM GDP for 10 min on ice. Drug solutions and membrane were mixed, and then reactions were initiated by adding GTP γ^35S and continued for 30 min at 25° C. Reaction mixtures were filtered over Whatman GF/B filters under vacuum, and washed three times with 3 mL of ice-cold buffer (HEPES 25, pH7.4, MgCl2 10 and NaCl-100). Filters were dried and mixed with scintillant, and counted for ^35S activity using a […]. Agonist-induced GTP γ^35S binding was obtained by subtracting that in the absence of agonist. Binding data were analyzed using a non-linear regression method. In case of antagonist assay, the reaction mixture contained 10 nM […] in the presence of test antagonist at concentrations ranging from 0.08 to 5000 nM.
On the technique in general: Binding of GTPγS marks nucleotide exchange on a G protein.
In turn, `O=C(O)CCNCc1ccc(-c2noc(CCCCc3ccccc3)n2)cc1` [3-({4-[5-(4-Phenylbutyl)-1,2,4-oxadiazol-3-yl]benzyl}amino)propanoic acid] yielded a 50% effective concentration (EC50) of 606 nM.
With `CCc1cc(-c2noc(CCCCc3ccccc3)n2)ccc1CNCCCP(=O)(O)O` [Compound 1, [3-({2-Ethyl-4-[5-(4-phenylbutyl)-1,2,4-oxadiazol-3-yl]benzyl}amino)propyl]phosphonic acid], the EC50 came to 79.2 nM.
Next, `O=P(O)(O)CCCNCc1ccc(-c2noc(CCCCc3ccccc3)n2)c(F)c1` [Compound 2, [3-({3-Fluoro-4-[5-(4-phenylbutyl)-1,2,4-oxadiazol-3-yl]benzyl}amino)propyl]phosphonic acid]: 23.8 nM; `O=P(O)(O)CCCNCc1ccc(-c2noc(CCCCc3ccccc3)n2)c(Br)c1` [Compound 3, [3-({3-Bromo-4-[5-(4-phenylbutyl)-1,2,4-oxadiazol-3-yl]benzyl}amino)propyl]phosphonic acid]: 16.9 nM.
For the molecule `O=P(O)(O)CCCNCc1ccc(-c2noc(CCCCc3ccccc3)n2)cc1` [Compound 4, [3-({4-[5-(4-Phenylbutyl)-1,2,4-oxadiazol-3-yl]benzyl}amino)propyl]phosphonic acid], the 50% effective concentration (EC50) is 63.1 nM. Compared with the last molecule, the EC50 is about 3.7-fold higher.
Next, `O=P(O)(O)CCCNCc1ccc(-c2noc(CCCCc3ccccc3)n2)c(-c2ccco2)c1` [Compound 7, [3-({3-(2-Furyl)-4-[5-(4-phenylbutyl)1,2,4-oxadiazol-3-yl]benzyl}amino)propyl]phosphonic acid]: 217 nM.

A word on the EC50: it is the concentration that produces a half-maximal response.
